The record followed here is patent US11339193B2, “CDP protein secretion inhibitors” (KEZAR LIFE SCIENCES, priority 2018, dated 2022).

The structures appear in SMILES notation. Like-named read-outs stand apart in the source and are kept apart here. Numbered stars: 1 amine (or outer) side, 2 acyl side, 3 side chain; on linkers, the order of the positions; unused ones are H or OH. Square brackets hold non-standard residues; d marks the D form. Peptide text beside a SMILES is read from it. NMeAla(5-Cl-benzothien-3-yl) = CN[C@@H](Cc1csc2ccc(Cl)cc12)C(=O)O; X13 = CN([C@@H](Cc1cn(Cc2ccc(Br)cc2)c2ccc(F)cc12)C(=O)[*:2])[*:1]; X19 = CN([C@@H](Cc1cn(Cc2ccc(Cl)cc2)c2ccccc12)C(=O)[*:2])[*:1]; X18 = Cc1ccc(Cn2cc(C[C@@H](C(=O)[*:2])N(C)[*:1])c3ccccc32)cc1; X15 = CCn1cc(C[C@@H](C(=O)[*:2])N(C)[*:1])c2ccccc21; Butanoyl(2R-oxy,4-CN) = N#CCC[C@@H](O)C(=O)O; X23 = CN([C@@H](CC1=CCCCC1)C(=O)[*:2])[*:1]; X21 = CN([C@@H](CC1=CCCC1)C(=O)[*:2])[*:1]; Abu(4,4,4-F3) = N[C@@H](CC(F)(F)F)C(=O)O; NMeL = CN[C@@H](CC(C)C)C(=O)O; NMeA = CN[C@@H](C)C(=O)O

What is called IC50 is the concentration needed to halve the response being measured. The term EC50 denotes the midpoint of the concentration-response curve.

Holding throughout (assay type): cell-based
The test system of assay [1] is PD1-ss+10aa/Gaussia Luciferase. Put plainly: Dox induced PD1-ss-Gluc assay. The note with it: read-out: PD1ss Gluc IC50. The source says:
Dox Induced PD1-ss-Gluc Assay
(§1) Flp-In 293 T-REx™ cells were transfected with pcDNA™5/FRT/TO plasmid inserted with cDNA encoding Gaussia Luciferase fused to the 3′ end of cDNA encoding PD1 signal sequence plus 10 amino acids (N-[…]-C) (SEQ ID NO:3). Transfected cells were selected for resistance to the selectable markers Hygromycin and Blasticidin to create a stable cell line that contained the PD1-ss+10aa/Gaussia Luciferase cDNA insert whose expression was regulated under the T-REx™ system. The day before assay, cells were trypsinized and plated in 384-well tissue culture plates. The next day, compound dilutions in DMSO/media containing doxycycline were added to the wells and incubated at 37° C., 5% CO2.

The subject of assay [2] is TNFα-FL/Gaussia Luciferase. Nature of the assay: Dox induced TNFα-FL-Gluc assay. The conditions noted are these: read-out: TNFa FL Gluc IC50. The source says: Dox Induced TNFα-FL-Gluc Assay
Flp-In 293 T-REx™ cells were transfected with pcDNA™5/FRT/TO plasmid inserted with cDNA encoding Gaussia Luciferase fused to the 3′ end of cDNA encoding full length TNFα (amino acids 1-233). Transfected cells were selected for resistance to the selectable markers Hygromycin and Blasticidin to create a stable cell line that contained the TNFα-FL/Gaussia Luciferase cDNA insert whose expression was regulated under the T-REx™ system. The day before assay, cells were trypsinized and plated in 384-well tissue culture plates. The next day, compound dilutions in DMSO/media containing doxycycline were added to the wells and incubated at 37° C., 5% CO2.

Assay [3] concerns NCI-H929 multiple myeloma cell line. Put plainly: H929 assay (cell viability, Celltiter-Glo). The conditions noted are these: Homo sapiens, NCI-H929, read-out: H929 EC50. As for the experimental part: The human multiple myeloma cell line NCI-H929 was cultured in Advanced RPMI 1640 media (Gibco@) supplemented with 6% fetal bovine serum, 2 mM Glutamine, and 1× Penicillin/Streptomycin. On the day of assay, cells were resuspended in RPMI 1640 media supplemented with 10% fetal bovine serum, 2 mM Glutamine, and 1× Penicillin/Streptmycin and plated in 384-well tissue culture plates and treated with compound dilutions in DMSO/media. Plates were incubated at 37° C., 5% CO2 for 48 hours. After 48 hours, Celltiter-Glo@ (Promega) was added to each well and luciferase signal was quantified using Tecan Infinite M1000 Pro for cell viability determination.
For orientation: In ATP-based viability assays light output follows the ATP content of the culture.

The subject of assay [4] is Prl-ss+10aa/Gaussia Luciferase. Put plainly: Prl-ss-Gluc assay (constitutively active or 24 hr Dox inducible). The conditions noted are these: read-out: Prl IC50.
Excerpt: Constitutively Active Prl-ss-Gluc Assay
Flp-In 293 T-REx™ cells were transfected with pcDNA™5/FRT plasmid inserted with cDNA encoding Gaussia Luciferase fused to the 3′ end of cDNA encoding Prl signal sequence plus 10 amino acids (N-[…]-C) (SEQ ID NO:4). Transfected cells were selected for resistance to the selectable markers Hygromycin and Blasticidin to create a stable cell line that constitutively expressed the Prlss+10aa/Gaussia Luciferase fusion protein. The day before assay, cells were trypsinized and plated in 384-well tissue culture plates. The next day, culture media was removed from the wells and replaced with fresh media. Compound dilutions in DMSO/media were added to the wells and incubated at 37° C., 5% CO2.
24 hr Dox Inducible Prl-ss-Gluc Assay
as §1, with “Prl” for “PD1”, “NO:5).” for “NO:3).”, “Prl-ss+10aa/Gaussia” for “PD1-ss+10aa/Gaussia”

Another assay has as its system HER3ss-Gluc. Put plainly: HER3ss assay. The note with it: read-out: HER3 ss IC50. As for the experimental part:
The mature domain of secreted luciferase from Gaussia princeps (GLuc) was cloned into pcDNA5/FRT/TO. The signal sequence plus four amino acids of the mature domain from HER3 ([…]) (SEQ ID NO:8) were cloned upstream of GLuc mature domain and used in transient transfection experiment. HEK-293T T-rex cells were cultured in Dulbecco's modified Eagle's medium with 10% FBS at 5% CO2. Cells were plated 1×10e6 cells per well in a 6-well plate and incubated for 6 h. Cells were transiently transfected with HER3ss-Gluc using Lipofectamine 2000 (Invitrogen). After overnight incubation, transfected cells were replated in a clear-bottomed, black 96-well plate at a density of 20,000 cells per well. Six hours after plating, the cells were treated with doxycycline (1 μg/ml) and increasing concentrations of the indicated compounds for 24 h. Secreted luciferase in the conditioned media was quantified by luminescence using the BioLux Gaussia Luciferase Assay Kit (New England Biolabs, Ipswich, Mass., USA) and a SpectraMax M5 plate reader (Molecular Devices).

In assay [5] the test system is U266B1 multiple myeloma cell line. Nature of the assay: U266 assay (cell viability, Celltiter-Glo). The conditions noted are these: Homo sapiens, U-266. As for the experimental part:
Cells were plated in 384-well tissue culture plates and treated with compound dilutions in DMSO/media. Plates were incubated at 37° C., 5% CO2 for 48 hours. After 48 hours, Celltiter-Glo@ (Promega) was added to each well and luciferase signal was quantified using Tecan Infinite M1000 Pro for cell viability determination.

Where [6] appears, read: Flp-In 293 T-REx cells, doxycycline, 24 hours.
[7] abbreviates: HEK-293T T-rex cells, transient transfection, doxycycline, 24 h.
The mark [8] stands for this setting: Flp-In 293 T-REx cells, 24 hours.

In the case of `CCn1cc(C[C@H]2C(=O)N[C@@H](CC(C)C)C(=O)N(C)[C@@H](C)C(=O)O[C@H](CCC#N)C(=O)N[C@@H](CC(F)(F)F)C(=O)N(C)[C@@H](CC(C)C)C(=O)N[C@@H](CC(F)(F)F)C(=O)N2C)c2ccccc21` [C-79] (cyclo(L[NMeA][Butanoyl(2R-oxy,4-CN)][Abu(4,4,4-F3)][NMeL][Abu(4,4,4-F3)][X15])), the IC50 is 390 nM in assay [1] (setting [6]), 1490 nM in assay [2] (setting [6]), > 25000 nM in assay [4] (I.A.) and 112 nM in the assay on HER3ss-Gluc (setting [7]). Also, the EC50 in assay [3] (48 hours, cell viability) is 4740 nM; in assay [5] (I.A.), > 25000 nM.

Turning to `CC(C)C[C@@H]1NC(=O)[C@H](Cc2csc3ccc(Cl)cc23)N(C)C(=O)[C@H](CC(C)C)NC(=O)[C@H](CC2=CCCCC2)N(C)C(=O)[C@H](CC(F)(F)F)NC(=O)[C@@H](CCC#N)OC(=O)[C@H](C)N(C)C1=O` [C-80] (cyclo(L[NMeA][Butanoyl(2R-oxy,4-CN)][Abu(4,4,4-F3)][X23]L[NMeAla(5-Cl-benzothien-3-yl)])), the IC50 is > 25000 nM in assay [1] (I.A.), > 25000 nM in assay [2] (I.A.), 23700 nM in assay [4] (setting [8]) and > 25000 nM in the assay with HER3ss-Gluc (I.A.). For the same compound, the EC50 in assay [3] (48 hours, cell viability) was found to be 3440 nM; in assay [5] (48 hours, cell viability) it was 5680 nM.

On to `CC(C)C[C@@H]1NC(=O)[C@H](Cc2csc3ccc(Cl)cc23)N(C)C(=O)[C@H](CC(C)C)NC(=O)[C@H](CC2=CCCC2)N(C)C(=O)[C@H](CC(F)(F)F)NC(=O)[C@@H](CCC#N)OC(=O)[C@H](C)N(C)C1=O` [C-81] (cyclo(L[NMeA][Butanoyl(2R-oxy,4-CN)][Abu(4,4,4-F3)][X21]L[NMeAla(5-Cl-benzothien-3-yl)])), for which the IC50 in assay [1] (setting [6]) is 934 nM; in assay [2] (I.A.), > 25000 nM; in assay [4] (I.A.), > 25000 nM; with HER3ss-Gluc (setting [7]) it was 88 nM. Further, the EC50 in assay [3] (I.A.) and in assay [5] (I.A.) was > 25000 nM in each case.

In the case of `CC(C)C[C@@H]1NC(=O)[C@H](Cc2cn(Cc3ccc(Br)cc3)c3ccc(F)cc23)N(C)C(=O)[C@H](CC(F)(F)F)NC(=O)[C@H](CC(C)C)N(C)C(=O)[C@H](CC(F)(F)F)NC(=O)[C@@H](CCC#N)OC(=O)[C@H](C)N(C)C1=O` [C-82] (cyclo(L[NMeA][Butanoyl(2R-oxy,4-CN)][Abu(4,4,4-F3)][NMeL][Abu(4,4,4-F3)][X13])), the IC50 stood at 42 nM in assay [1] (setting [6]), 104 nM in assay [2] (setting [6]), 506 nM in assay [4] (setting [8]) and 98 nM with HER3ss-Gluc (setting [7]). Moreover, the EC50 was 649 nM in assay [3] (48 hours, cell viability) and > 25000 nM in assay [5] (I.A.).

On to `Cc1ccc(Cn2cc(C[C@H]3C(=O)N[C@@H](CC(C)C)C(=O)N(C)[C@@H](C)C(=O)O[C@H](CCC#N)C(=O)N[C@@H](CC(F)(F)F)C(=O)N(C)[C@@H](CC(C)C)C(=O)N[C@@H](CC(F)(F)F)C(=O)N3C)c3ccccc32)cc1` [C-83] (cyclo(L[NMeA][Butanoyl(2R-oxy,4-CN)][Abu(4,4,4-F3)][NMeL][Abu(4,4,4-F3)][X18])), for which the IC50 in assay [1] (setting [6]) turned out to be 42 nM; in assay [2] (setting [6]), 103 nM; in assay [4] (setting [8]), 1090 nM; with HER3ss-Gluc (setting [7]), 81 nM. Besides, the EC50 is 603 nM in assay [3] (48 hours, cell viability) and > 25000 nM in assay [5] (I.A.).

As to `CC(C)C[C@@H]1NC(=O)[C@H](Cc2cn(Cc3ccc(Cl)cc3)c3ccccc23)N(C)C(=O)[C@H](CC(F)(F)F)NC(=O)[C@H](CC(C)C)N(C)C(=O)[C@H](CC(F)(F)F)NC(=O)[C@@H](CCC#N)OC(=O)[C@H](C)N(C)C1=O` [C-84] (cyclo(L[NMeA][Butanoyl(2R-oxy,4-CN)][Abu(4,4,4-F3)][NMeL][Abu(4,4,4-F3)][X19])), the IC50 in assay [1] (setting [6]) came out at 37 nM; in assay [2] (setting [6]), 77 nM; in assay [4] (setting [8]) it was 802 nM; with HER3ss-Gluc (setting [7]), 72 nM. Moreover, the EC50 is 608 nM in assay [3] (48 hours, cell viability) and > 25000 nM in assay [5] (I.A.).
